The source of these data is BindingDB's records for doi:10.1016/s0960-894x(99)00488-6 (Smithkline Beecham Pharmaceuticals, 1999).

The assay deals with Tyrosine--tRNA ligase (Staphylococcus aureus). As to the kind of experiment: Compound was tested for inhibition of Staphylococcus aureus tyrosyl tRNA Synthetase.
`N[C@@H](Cc1ccc(O)cc1)C(=O)N[C@H](C(=O)O)c1ccc(O)c(O)c1` [(S)-[(S)-2-Amino-3-(4-hydroxy-phenyl)-propionylamino]-(3,4-dihydroxy-phenyl)-acetic acid] registered an IC50 of 11000 nM.

The compound `N[C@@H](Cc1ccc(O)cc1)C(=O)N[C@H](C(=O)O)c1ccccc1` [(S)-[(S)-2-Amino-3-(4-hydroxy-phenyl)-propionylamino]-phenyl-acetic acid] gave an IC50 of 900 nM.

The compound `N[C@@H](Cc1ccc(O)cc1)C(=O)NC(C(=O)O)c1ccccc1F` (stereo partly drawn) [[(S)-2-Amino-3-(4-hydroxy-phenyl)-propionylamino]-(2-fluoro-phenyl)-acetic acid] registered an IC50 of 7800 nM.

The compound `COC(=O)C(NC(=O)[C@@H](N)Cc1ccc(O)cc1)c1ccccc1O` (stereo partly drawn) [[(S)-2-Amino-3-(4-hydroxy-phenyl)-propionylamino]-(2-hydroxy-phenyl)-acetic acid methyl ester] yielded an IC50 of 1200 nM.

In the case of `N[C@@H](Cc1ccc(O)cc1)C(=O)NC(C(=O)O)c1ccccc1O` (stereo partly drawn) [[(S)-2-Amino-3-(4-hydroxy-phenyl)-propionylamino]-(2-hydroxy-phenyl)-acetic acid], the half-inhibitory concentration (IC50) amounted to 800 nM.

`N[C@@H](Cc1ccc(O)cc1)C(=O)NC(C(=O)O)c1cccc(O)c1` (stereo partly drawn) [[(S)-2-Amino-3-(4-hydroxy-phenyl)-propionylamino]-(3-hydroxy-phenyl)-acetic acid] had an IC50 of 3400 nM.
